Measured values from patent publication US9862713B2, “Substituted bicyclic heteroaryl compounds as RXR agonists” (CONNEXIOS LIFE SCIENCES PVT. LTD., priority 2014, dated 2018).

How the values were obtained:
[1] = system: MIA PaCa-2 cells; test: BrdU incorporation assay in MIA PaCa-2 cells; assay type: cell-based; conditions: 3 uM
Protocol: Impact of compound-40 on cell proliferation was further evaluated by BrdU incorporation assay. MIA PaCa-2 cells were grown for 4 days in presence or absence of compound-40 (3 uM). After treatment with vehicle control or compound-40 (3 uM), cells were exposed to BrdU. BrdU incorporation was measured using a commercially available kit (Roche) as per manufacturer's protocol.

[2] = system: mouse neuronal cells (N2A cells); test: Cholesterol-treated neuronal cells (N2A), in vitro data for Alzheimer's disease; assay type: cell-based; conditions: 320 uM cholesterol
Protocol: In order to study the impact of Compound 40 on Alzheimer's Disease, cultured mouse neuronal cells (N2A cells) were treated with 320 uM cholesterol alone or with test molecule for 24 h. Cholesterol was removed and treatment is continued for 24 h. Cholesterol content in the cells was measured by biochemical methods, normalized to total protein. For gene expression studies, cells were treated with 320 uM cholesterol alone or with test molecule for 48 h. RNA was made and later converted to cDNA and the gene expression was measured. […] These cellular events lead to reduced plaque formation and improvement in the health of neuronal cells.

[3] = system: DIO mice; test: Effect of RXR agonist on DIO mice (high fat diet); assay type: in vivo, male C57BL/6J mice
Protocol: Six week old male C57BL/6J mice were selected, acclimatized for a period of 1 week, Animals were assigned to either chow (10% kcal from fat) or high fat diet (HFD) (D12492; 60% kcal from fat), Research Diets, Inc., New Jersey, USA. Animals were housed in polypropylene cages and maintained at 23±1° C. at 60±10% humidity and 12 hour cycles of light and dark with free access to feed and water (ad libitum). After 11 weeks of the diet intervention, the HFD fed animals were assigned to specific treatment groups based upon body weight, glucose AUC during OGTT, fasting and fed blood glucose and fasting TG. The lean control mice (n=10) were fed with normal chow diet while the treatment group (n=10) and HFD Control (n=10) with high fat diet throughout the experimental period. Treatment group received Compound 40 at a dose of 5-20 mg/kg b.wt, once daily, po as suspension in 1% MC (methyl cellulose) as vehicle. Lean control and HFD controls animals were administered with vehicle.
Weekly body weight & daily feed consumption was recorded. The blood collected from tail vein was subjected for estimation of glucose and TG using Co-agucheck TG strip. OGTT was performed in 6 h fasted mice with 2 g/kg, of oral glucose challenge after 9 weeks of treatment.
Measurement of Thermogenesis: Body temperatures were assessed at the end of treatment period using a rectal probe. For the cold exposure experiment, mice were housed individually and transferred to a cold environment with an ambient temperature of 4° C. Temperature was measured every 15 min for 75 min and then brought to room temperature, then rectal temperature was measured for further 20 min with 10 min interval. After 10 weeks of treatment, blood was collected, from retro-orbital bleeding, for biochemical measurements. Then animals were euthanized and necropsied, the liver was excised immediately, weighed and taken to estimate liver triglyceride (TG). Different adipose depots were separated and weighed.
Animals were sacrificed after terminal measurement of fasting glycerol, free fatty acid, cholesterol, LDL levels.

[4] = system: MIA PaCa-2 cells; test: Cell death (DNA fragmentation) in MIA PaCa-2 cells; assay type: cell-based
Protocol: Caspase-3 activity was measured using its ability to cleave its substrate (Ac-DEVD-R110). Increased Caspase-3 activity would lead to higher release of fluorescent R110 which was measured at 485 nm excitation and 530 nm emission. Activity of caspase-3 (as nano-moles of R110 released) was normalized to total cellular protein. […] Cell death was measured by increased levels of DNA fragments as per manufacturer's protocol (Roche) and was normalized to total cellular DNA. Data are represented as % of control.

[5] = system: MIA PaCa-2 cells; test: ROS level (DCFH-DA probe) in MIA PaCa-2 cells; assay type: cell-based; conditions: 4 days treatment
Protocol: To assess the impact of Compound 40 on ROS level, the cells were exposed to ROS indicator probe (DCFH-DA) for 1 h. ROS induced increase in DCF fluorescence was estimated at 485 nm excitation and 528 nm emission. ROS levels were normalized to cellular DNA levels which were measured by using bis-benzamide fluorescence at 360 nm excitation and 460 nm emission. The ROS levels are represented at % of control. […] Over-expression of RXRa further augmented the ROS levels.

[6] = system: db/db mice; test: Effect of RXR agonist on db/db mice; assay type: in vivo; conditions: 2.5, 5, 10 and 15 mg/kg, BID, po
Protocol: The male db/db and lean mice were procured from Jackson Laboratory, US laboratories, acclimatized for a week, were fed a standard laboratory diet. The lean control and the db/db mice were 8 weeks old at the start of the study and were randomized to either vehicle or drug (Compound 40, 2.5, 5, 10 and 15 mg/kg, BID, po) treatment groups by body weight, fed glucose and glucose AUC during an oral glucose tolerance test. The treatment was continued for 8 weeks. Body weight, fasting and fed glucose and fast triglycerides (tail snip) were monitored weekly. At the end of week 8 of the treatment, glucose and insulin HbAlc levels were followed at different time intervals. Blood samples collected from tail nipping method were subjected at the end of week 7 of treatment period measured for HbAlc levels by DCA vantage (SIEMENS).
Assessment of 24 h glucose profile: Fed state blood samples were collected by tail nipping method and measured for glucose levels at every 2 h time intervals up to 8 h and then followed by 4 h intervals at the end of week 7 of treatment.

[7] = system: hRXR α, β, or γ; test: Transactivation assay (RARE-Luc dual luciferase reporter in HEK-293 cells), activity relative to LG268; assay type: cell-based, human; conditions: 24 h, luciferase activity expressed relative to LG268
In short: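 HEK-293 cells co-transfected with hRXR α, β or γ expression vector, RARE-firefly luciferase and renilla luciferase; 24 h later treated with agonist (100 nM, 300 nM, 1 uM) for 24 h. Firefly signal normalized to renilla; activity expressed relative to the RXR agonist LG268.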

[8] = 5-20 mg/kg b.wt, once daily, po
[9] = 5-20 mg/kg b.wt, once daily, po, 10 weeks
[10] = 5-20 mg/kg b.wt, once daily, po, OGTT after 9 weeks

CC1(C)CCC(C)(C)c2sc(N(CC3CC3)c3ccc(C(=O)O)cn3)nc21 [Compound 40, 6-[(Cyclopropylmethyl) (4,4,7,7-tetramethyl-4,5,6,7-tetrahydro-1,3-benzothiazol-2-yl)amino]pyridine-3-carboxylic acid]
BrdU incorporation ([1]; 4 days): significantly reduced
BrdU incorporation in RXRa over-expressing MIA PaCa-2 ([1]; RXRa over-expressing cells): further reduced the BrdU incorporation
apoptosis (Caspase activity) [2]: decreased apoptosis
cholesterol accumulation (cholesterol content in the cells) [2]: reduced cholesterol accumulation
oxidative stress (ROS levels) [2]: reduced oxidative stress
cholesterol efflux (ABCA1 and ABCG1 expression) ([2]; 48 h): increased the cholesterol efflux
HOMA-IR [3, 8]: improves HOMA-IR
UCP1 expression levels in inguinal white adipose tissues [3, 8]: significantly enhances
circulating free fatty acid levels [3, 8]: significant decrease
circulating glycerol levels [3, 8]: significant decrease
ectopic fat accumulation [3, 8]: without increasing ectopic fat accumulation
fasting TG [3, 8]: significantly reduces fasting TG
fed cholesterol levels [3, 8]: significantly reduces fed cholesterol levels
adipose depot weights [3, 9]: decrease in various adipose depot weights
body weight gain [3, 9]: significantly reduced body weight gain
glucose disposal (OGTT) [3, 10]: improves glucose disposal
hyperinsulinemia (insulin levels) [3, 10]: significantly reduces hyperinsulinemia
non-shivering thermogenesis ([3]; cold exposure 4° C., rectal temperature): significantly enhances non-shivering thermogenesis
cell death (DNA fragmentation) [4]: increased cell death
ROS levels [5]: significant augmentation of stress levels
post-prandial blood glucose levels ([6]; 8 weeks): significantly reduced post-prandial blood glucose levels
HbAlc levels ([6]; end of week 7): steep and dose dependent reduction
glucose excursion during the prandial phase (24 h glucose profile) ([6]; end of week 7): significantly reduced glucose excursion
Activity at 300 nM ([7]; compound at 300 nM): ***** (>0.6)
Activity at 1 µM ([7]; compound at 1 µM): **** (>0.9 to <1)
